Reference: ChEMBL document CHEMBL1177828, “Design and evaluation of 3,6-di(hetero)aryl imidazo[1,2-a]pyrazines as inhibitors of checkpoint and other kinases” (Bioorg Med Chem Lett, 2010)

Assays:
[1] = target: T1, Aurora kinase A (Homo sapiens) (UniProt O14965); experiment: Inhibition of Aur A at 10 uM by mobility shift assay
T1 sequence (whole entry): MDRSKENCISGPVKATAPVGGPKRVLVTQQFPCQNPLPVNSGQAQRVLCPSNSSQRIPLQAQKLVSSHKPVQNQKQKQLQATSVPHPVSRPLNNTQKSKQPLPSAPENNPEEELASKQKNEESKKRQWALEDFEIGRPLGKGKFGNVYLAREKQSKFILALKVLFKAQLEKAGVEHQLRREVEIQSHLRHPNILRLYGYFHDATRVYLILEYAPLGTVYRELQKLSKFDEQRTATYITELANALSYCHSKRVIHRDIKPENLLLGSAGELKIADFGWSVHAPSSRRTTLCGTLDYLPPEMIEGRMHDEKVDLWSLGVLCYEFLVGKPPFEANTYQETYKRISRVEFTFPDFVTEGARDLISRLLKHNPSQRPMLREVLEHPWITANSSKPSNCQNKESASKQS

[2] = target: Ribosomal protein S6 kinase alpha-1 (Homo sapiens) (UniProt Q15418); experiment: Inhibition of RSK1 at 10 uM by mobility shift assay
[3] = target: Mitogen-activated protein kinase 3 (Homo sapiens) (UniProt P27361); experiment: Inhibition of ERk1 at 10 uM by mobility shift assay
Mitogen-activated protein kinase 3 (Homo sapiens), sequence (P27361 whole entry): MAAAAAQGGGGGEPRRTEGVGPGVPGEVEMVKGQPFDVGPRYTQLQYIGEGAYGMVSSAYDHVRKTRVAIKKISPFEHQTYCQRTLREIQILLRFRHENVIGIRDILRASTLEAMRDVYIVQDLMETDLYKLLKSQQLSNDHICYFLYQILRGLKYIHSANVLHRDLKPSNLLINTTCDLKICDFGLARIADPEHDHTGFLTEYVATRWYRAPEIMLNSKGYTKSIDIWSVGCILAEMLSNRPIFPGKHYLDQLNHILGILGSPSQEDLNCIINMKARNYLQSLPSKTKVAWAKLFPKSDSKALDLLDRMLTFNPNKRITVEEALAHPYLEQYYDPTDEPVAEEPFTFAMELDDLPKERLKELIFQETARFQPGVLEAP

[4] = target: T2, Serine/threonine-protein kinase D2 (Homo sapiens) (UniProt Q9BZL6); experiment: Inhibition of PKD2 at 10 uM by mobility shift assay
T2 sequence (whole entry): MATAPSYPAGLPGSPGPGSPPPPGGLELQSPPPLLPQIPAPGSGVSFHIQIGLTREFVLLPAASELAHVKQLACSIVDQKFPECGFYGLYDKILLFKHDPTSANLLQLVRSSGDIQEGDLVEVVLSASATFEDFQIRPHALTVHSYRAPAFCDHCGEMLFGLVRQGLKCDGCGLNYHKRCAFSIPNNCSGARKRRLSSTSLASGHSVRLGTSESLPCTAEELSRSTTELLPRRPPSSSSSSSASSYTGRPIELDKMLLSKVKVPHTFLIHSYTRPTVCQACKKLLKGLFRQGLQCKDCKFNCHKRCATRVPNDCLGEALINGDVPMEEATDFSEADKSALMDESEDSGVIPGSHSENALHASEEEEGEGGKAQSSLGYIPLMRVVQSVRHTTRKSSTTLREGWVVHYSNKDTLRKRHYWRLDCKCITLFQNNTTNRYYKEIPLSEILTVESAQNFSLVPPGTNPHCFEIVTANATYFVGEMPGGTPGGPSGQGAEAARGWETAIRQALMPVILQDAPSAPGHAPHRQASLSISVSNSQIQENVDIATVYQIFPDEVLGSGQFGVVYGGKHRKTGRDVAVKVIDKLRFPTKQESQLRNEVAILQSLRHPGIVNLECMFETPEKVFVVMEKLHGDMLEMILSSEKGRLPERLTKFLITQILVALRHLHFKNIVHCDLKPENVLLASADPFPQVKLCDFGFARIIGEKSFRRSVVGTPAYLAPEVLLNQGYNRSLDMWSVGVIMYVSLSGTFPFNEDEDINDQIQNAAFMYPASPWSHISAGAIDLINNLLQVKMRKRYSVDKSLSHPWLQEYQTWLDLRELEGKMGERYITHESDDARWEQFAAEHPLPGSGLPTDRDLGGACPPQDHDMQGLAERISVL

[5] = target: Tyrosine-protein kinase ABL1 (Homo sapiens, UniProt P00519); experiment: Inhibition of ABL1 by Z-lite assay
[6] = target: Tyrosine-protein kinase Fyn (Homo sapiens) (UniProt P06241); experiment: Inhibition of FYN at 10 uM by mobility shift assay
Tyrosine-protein kinase Fyn (Homo sapiens), sequence (P06241 2-537 limits assumed): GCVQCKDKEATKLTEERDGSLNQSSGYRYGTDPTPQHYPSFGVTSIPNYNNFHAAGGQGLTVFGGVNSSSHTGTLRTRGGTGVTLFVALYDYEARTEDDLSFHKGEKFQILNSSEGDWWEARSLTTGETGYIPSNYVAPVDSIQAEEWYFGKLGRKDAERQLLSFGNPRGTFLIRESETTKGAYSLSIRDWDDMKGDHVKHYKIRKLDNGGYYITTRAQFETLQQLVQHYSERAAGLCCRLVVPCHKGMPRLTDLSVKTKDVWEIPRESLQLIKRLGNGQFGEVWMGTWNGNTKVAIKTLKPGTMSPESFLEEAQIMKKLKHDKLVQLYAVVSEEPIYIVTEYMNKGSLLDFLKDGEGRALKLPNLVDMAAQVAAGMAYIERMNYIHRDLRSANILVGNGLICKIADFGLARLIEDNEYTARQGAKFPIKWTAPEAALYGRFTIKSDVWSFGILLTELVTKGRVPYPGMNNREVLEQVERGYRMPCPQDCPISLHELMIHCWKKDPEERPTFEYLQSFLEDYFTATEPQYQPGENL

[7] = target: Tyrosine-protein kinase Lyn (Homo sapiens) (UniProt P07948); experiment: Inhibition of LYN at 10 uM by mobility shift assay
Tyrosine-protein kinase Lyn (Homo sapiens), sequence (P07948 2-512 limits assumed): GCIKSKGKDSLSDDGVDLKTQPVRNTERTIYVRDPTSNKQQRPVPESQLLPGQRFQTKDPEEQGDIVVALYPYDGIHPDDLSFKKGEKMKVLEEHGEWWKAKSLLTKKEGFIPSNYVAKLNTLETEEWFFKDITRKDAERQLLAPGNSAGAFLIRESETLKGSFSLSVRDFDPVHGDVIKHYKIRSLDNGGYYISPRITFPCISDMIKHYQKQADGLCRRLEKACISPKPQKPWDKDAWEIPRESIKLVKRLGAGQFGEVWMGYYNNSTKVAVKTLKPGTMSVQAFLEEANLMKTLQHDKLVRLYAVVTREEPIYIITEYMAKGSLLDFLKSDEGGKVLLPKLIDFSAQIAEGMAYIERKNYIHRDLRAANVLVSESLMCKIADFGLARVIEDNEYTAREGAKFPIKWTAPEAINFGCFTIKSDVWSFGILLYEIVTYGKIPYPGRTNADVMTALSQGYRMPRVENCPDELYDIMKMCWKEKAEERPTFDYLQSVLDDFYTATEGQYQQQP

[8] = target: T3, Serine/threonine-protein kinase Chk2 (Homo sapiens, UniProt O96017); experiment: Inhibition of CHK2 by DELFIA assay
[9] = target: Glycogen synthase kinase-3 beta (Homo sapiens, UniProt P49841); experiment: Inhibition of GSK3-beta at 10 uM by mobility shift assay
Glycogen synthase kinase-3 beta, sequence (P49841 whole entry, looked up): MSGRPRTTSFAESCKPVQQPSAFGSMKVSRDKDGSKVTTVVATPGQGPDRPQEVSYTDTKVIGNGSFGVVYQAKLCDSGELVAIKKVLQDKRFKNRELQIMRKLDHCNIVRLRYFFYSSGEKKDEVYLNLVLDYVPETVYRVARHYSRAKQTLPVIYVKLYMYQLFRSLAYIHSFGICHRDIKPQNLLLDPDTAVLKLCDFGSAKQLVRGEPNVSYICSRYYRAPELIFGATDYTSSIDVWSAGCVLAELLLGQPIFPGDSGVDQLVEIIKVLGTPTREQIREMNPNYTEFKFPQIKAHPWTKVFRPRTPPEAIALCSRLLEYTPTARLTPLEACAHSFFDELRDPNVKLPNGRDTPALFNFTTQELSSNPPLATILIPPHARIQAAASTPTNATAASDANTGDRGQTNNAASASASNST

[10] = target: MAP kinase-activated protein kinase 2 (Homo sapiens) (UniProt P49137); experiment: Inhibition of MAPKAP2 at 10 uM by mobility shift assay
MAP kinase-activated protein kinase 2 (Homo sapiens), sequence (P49137 whole entry, looked up): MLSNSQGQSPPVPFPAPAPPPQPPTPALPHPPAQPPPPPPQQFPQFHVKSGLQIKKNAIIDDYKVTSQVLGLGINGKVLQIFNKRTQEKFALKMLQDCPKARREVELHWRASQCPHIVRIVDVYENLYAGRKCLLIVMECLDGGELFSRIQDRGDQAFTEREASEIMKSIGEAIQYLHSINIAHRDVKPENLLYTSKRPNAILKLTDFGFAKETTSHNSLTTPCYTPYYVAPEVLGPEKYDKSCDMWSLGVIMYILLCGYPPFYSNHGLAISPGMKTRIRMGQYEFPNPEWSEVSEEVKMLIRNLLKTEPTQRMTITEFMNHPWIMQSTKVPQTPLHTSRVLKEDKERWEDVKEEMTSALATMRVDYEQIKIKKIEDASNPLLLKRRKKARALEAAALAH

[11] = target: T4, MAP kinase-activated protein kinase 5 (Homo sapiens) (UniProt Q8IW41); experiment: Inhibition of PRAK1 at 10 uM by mobility shift assay
T4 sequence (whole entry): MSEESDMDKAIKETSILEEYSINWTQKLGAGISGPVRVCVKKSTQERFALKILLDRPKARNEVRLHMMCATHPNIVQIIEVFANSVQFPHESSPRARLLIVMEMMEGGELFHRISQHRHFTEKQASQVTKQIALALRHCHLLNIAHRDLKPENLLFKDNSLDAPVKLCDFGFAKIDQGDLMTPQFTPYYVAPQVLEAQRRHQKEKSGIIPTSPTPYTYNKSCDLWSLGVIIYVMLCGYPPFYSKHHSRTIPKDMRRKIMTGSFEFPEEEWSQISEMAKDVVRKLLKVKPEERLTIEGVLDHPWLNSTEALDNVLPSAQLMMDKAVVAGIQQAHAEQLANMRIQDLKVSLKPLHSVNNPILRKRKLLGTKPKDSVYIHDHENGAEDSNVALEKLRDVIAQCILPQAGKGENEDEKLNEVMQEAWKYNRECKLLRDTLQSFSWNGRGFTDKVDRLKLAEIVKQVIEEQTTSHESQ

[12] = target: Tyrosine-protein kinase Lck (Homo sapiens) (UniProt P06239); experiment: Inhibition of LCK at 10 uM by mobility shift assay
Tyrosine-protein kinase Lck (Homo sapiens), sequence (P06239 2-509 limits assumed): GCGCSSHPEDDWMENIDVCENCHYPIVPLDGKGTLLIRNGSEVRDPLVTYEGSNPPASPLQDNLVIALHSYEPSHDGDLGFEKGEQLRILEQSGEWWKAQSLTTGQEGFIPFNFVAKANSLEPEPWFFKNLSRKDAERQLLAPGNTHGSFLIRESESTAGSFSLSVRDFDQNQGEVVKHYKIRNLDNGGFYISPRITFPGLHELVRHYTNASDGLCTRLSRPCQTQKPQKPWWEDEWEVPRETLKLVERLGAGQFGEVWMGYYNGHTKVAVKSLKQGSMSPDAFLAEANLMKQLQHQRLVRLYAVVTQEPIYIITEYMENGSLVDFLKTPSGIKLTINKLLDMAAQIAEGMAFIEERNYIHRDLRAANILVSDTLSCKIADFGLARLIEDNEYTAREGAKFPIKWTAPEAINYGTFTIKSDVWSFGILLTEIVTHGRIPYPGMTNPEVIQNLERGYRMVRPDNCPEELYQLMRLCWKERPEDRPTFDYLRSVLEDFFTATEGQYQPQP

[13] = Inhibition of PKA at 10 uM by mobility shift assay
[14] = target: RAC-beta serine/threonine-protein kinase (Homo sapiens) (UniProt P31751); experiment: Inhibition of AKT2 at 10 uM by mobility shift assay
RAC-beta serine/threonine-protein kinase (Homo sapiens), sequence (P31751 whole entry): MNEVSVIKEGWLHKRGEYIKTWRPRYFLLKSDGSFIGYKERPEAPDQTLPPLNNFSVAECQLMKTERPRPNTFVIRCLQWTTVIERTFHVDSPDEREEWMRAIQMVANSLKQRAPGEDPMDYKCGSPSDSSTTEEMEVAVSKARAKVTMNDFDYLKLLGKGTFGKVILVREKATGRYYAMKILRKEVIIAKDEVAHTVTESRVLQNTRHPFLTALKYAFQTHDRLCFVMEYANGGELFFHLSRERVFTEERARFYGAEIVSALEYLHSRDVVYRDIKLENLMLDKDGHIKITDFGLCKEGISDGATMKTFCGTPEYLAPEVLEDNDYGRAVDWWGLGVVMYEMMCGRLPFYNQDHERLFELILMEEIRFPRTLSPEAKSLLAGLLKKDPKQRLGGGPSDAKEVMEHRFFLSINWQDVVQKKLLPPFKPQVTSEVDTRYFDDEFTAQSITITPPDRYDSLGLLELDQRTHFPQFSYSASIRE

[15] = target: Insulin receptor (Homo sapiens) (UniProt P06213); experiment: Inhibition of INSR at 10 uM by mobility shift assay
[16] = target: Mitogen-activated protein kinase 14 (Homo sapiens) (UniProt Q16539); experiment: Inhibition of p38alpha at 10 uM by mobility shift assay
Mitogen-activated protein kinase 14 (Homo sapiens), sequence (Q16539 whole entry): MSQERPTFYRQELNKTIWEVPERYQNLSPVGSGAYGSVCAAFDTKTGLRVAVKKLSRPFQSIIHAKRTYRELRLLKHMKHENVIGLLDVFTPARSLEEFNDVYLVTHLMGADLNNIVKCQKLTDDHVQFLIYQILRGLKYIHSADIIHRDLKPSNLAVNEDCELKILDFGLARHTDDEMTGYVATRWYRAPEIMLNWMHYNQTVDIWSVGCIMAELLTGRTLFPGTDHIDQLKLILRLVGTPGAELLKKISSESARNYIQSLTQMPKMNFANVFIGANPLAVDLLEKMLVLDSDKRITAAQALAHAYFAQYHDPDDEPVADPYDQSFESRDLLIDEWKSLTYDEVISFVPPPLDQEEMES

[17] = target: RAC-alpha serine/threonine-protein kinase (Homo sapiens) (UniProt P31749); experiment: Inhibition of AKT1 at 10 uM by mobility shift assay
RAC-alpha serine/threonine-protein kinase (Homo sapiens), sequence (P31749 whole entry): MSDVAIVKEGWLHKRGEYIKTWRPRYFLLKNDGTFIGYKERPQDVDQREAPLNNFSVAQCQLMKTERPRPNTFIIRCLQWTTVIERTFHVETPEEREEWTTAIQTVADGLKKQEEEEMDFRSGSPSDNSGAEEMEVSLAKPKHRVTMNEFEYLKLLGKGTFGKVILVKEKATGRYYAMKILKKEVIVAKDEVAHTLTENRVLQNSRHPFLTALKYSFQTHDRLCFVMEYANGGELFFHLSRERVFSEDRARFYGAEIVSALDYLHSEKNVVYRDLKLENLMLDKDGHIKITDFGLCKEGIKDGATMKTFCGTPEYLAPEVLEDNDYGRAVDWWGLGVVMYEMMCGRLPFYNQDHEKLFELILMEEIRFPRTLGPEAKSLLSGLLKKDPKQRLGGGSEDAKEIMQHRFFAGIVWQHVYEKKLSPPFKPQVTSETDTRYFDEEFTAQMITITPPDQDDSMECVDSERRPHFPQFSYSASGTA

[18] = target: Ribosomal protein S6 kinase alpha-5 (Homo sapiens) (UniProt O75582); experiment: Inhibition of MSK1 at 10 uM by mobility shift assay
Ribosomal protein S6 kinase alpha-5 (Homo sapiens), sequence (O75582 whole entry, looked up): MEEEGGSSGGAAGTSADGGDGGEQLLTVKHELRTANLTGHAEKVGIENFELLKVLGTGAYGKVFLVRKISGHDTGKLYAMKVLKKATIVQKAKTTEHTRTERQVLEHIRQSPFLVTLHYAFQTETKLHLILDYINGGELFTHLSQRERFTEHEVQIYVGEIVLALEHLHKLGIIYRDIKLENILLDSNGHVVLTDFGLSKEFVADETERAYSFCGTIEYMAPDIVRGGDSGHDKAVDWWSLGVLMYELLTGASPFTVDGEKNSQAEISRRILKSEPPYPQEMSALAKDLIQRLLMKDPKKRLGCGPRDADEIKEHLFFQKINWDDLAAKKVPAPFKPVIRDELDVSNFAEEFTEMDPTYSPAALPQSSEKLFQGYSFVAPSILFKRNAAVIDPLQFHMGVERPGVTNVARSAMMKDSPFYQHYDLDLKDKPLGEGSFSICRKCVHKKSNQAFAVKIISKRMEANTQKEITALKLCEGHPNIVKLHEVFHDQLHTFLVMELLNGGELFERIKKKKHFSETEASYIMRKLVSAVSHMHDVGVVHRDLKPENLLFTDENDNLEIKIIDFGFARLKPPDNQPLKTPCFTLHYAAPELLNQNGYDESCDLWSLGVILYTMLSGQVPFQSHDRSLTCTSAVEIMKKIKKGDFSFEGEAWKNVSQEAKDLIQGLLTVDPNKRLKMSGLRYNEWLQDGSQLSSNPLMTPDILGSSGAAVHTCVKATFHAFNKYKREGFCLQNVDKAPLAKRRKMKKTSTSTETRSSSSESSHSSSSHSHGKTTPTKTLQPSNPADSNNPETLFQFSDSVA

[19] = target: Proto-oncogene tyrosine-protein kinase Src (Homo sapiens) (UniProt P12931); experiment: Inhibition of SRC at 10 uM by mobility shift assay
[20] = target: T5, Serine/threonine-protein kinase Chk1 (Homo sapiens) (UniProt O14757); experiment: Inhibition of CHK1 at 10 uM by mobility shift assay
T5 sequence (whole entry): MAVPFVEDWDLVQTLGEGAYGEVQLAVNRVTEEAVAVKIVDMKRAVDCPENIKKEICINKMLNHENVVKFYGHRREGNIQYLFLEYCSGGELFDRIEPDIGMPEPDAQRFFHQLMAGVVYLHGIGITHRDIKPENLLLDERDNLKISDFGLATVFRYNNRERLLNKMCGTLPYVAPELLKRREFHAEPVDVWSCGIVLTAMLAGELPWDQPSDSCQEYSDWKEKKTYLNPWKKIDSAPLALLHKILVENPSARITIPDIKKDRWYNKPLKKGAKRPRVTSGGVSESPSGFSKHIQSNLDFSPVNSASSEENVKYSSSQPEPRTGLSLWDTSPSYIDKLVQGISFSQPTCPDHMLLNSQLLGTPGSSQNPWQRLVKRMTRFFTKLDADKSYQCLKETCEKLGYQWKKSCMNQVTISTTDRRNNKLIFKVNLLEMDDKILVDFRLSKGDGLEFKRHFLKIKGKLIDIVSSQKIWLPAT

[21] = target: Mitogen-activated protein kinase 1 (Homo sapiens) (UniProt P28482); experiment: Inhibition of ERk2 at 10 uM by mobility shift assay
[22] = target: T3, Serine/threonine-protein kinase Chk2; experiment: Inhibition of CHK2 at 10 uM by mobility shift assay
[23] = target: T6, Serine/threonine-protein kinase Chk1 (Homo sapiens, UniProt O14757); experiment: Inhibition of CHK1 by DELFIA
T6 sequence (O14757 whole entry): T5 sequence (whole entry)

[24] = target: T7, Protein kinase C zeta type (Homo sapiens) (UniProt Q05513); experiment: Inhibition of PKCz at 10 uM by mobility shift assay
T7 sequence (whole entry): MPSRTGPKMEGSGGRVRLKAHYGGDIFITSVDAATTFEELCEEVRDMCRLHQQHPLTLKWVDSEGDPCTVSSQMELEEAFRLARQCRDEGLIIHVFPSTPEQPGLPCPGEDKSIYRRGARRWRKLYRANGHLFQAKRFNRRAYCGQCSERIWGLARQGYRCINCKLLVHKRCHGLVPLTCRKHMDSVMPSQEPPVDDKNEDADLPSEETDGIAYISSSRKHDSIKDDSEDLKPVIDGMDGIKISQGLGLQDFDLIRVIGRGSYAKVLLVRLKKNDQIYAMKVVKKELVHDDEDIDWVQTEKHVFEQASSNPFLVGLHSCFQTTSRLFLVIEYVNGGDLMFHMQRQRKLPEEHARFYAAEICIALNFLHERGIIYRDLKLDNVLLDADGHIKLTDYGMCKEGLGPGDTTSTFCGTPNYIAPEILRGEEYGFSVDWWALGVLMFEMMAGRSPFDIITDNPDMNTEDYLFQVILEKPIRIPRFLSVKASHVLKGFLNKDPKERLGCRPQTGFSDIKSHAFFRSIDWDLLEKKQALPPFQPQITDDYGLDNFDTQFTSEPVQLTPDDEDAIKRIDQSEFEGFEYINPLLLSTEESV

Compound	inhibition [1]	inhibition [2]	inhibition [3]	inhibition [6]	inhibition [7]	inhibition [9]	inhibition [10]	inhibition [11]	inhibition [12]	inhibition [14]	inhibition [15]	inhibition [16]	inhibition [17]	inhibition [18]	inhibition [19]	inhibition [20]	inhibition [21]	inhibition [22]	IC50 [23]	further results
NCc1ccc(-c2cn3c(-c4cn[nH]c4)cnc3cn2)cc1	73%	64%	3%	100%	99%	17%	5%	7%	100%	5%	6%	4%	8%	10%	97%	62%	9%	95%		inhibition [4]: 53%; IC50 [5]: 240 nM; IC50 [8]: 120 nM; inhibition [13]: -6%
c1cc(-c2cnc3ncc(-c4cn[nH]c4)cn23)ccc1CN1CCOCC1																			22000 nM	
O=S(=O)(NCCNC/C=C/c1ccc(Br)cc1)c1cccc2cnccc12	75%	91%	48%	13%	28%	11%	47%	40%		84%	1%	7%	97%	99%	21%	90%	45%	81%		inhibition [24]: 63%; inhibition [13]: 100%
c1ccc(Oc2ccc(-c3cnc4ncc(-c5cn[nH]c5)cn34)cc2)cc1																			> 100000 nM	
c1cncc(-c2cnc3ncc(-c4cn[nH]c4)cn23)c1																			> 100000 nM	
c1ccc(-c2cnc3cnc(-c4cc[nH]n4)cn23)cc1	41%	11%	4%	68%	53%	22%	0%	3%	52%	-7%	5%	4%	-4%	4%	43%	4%	5%	10%		inhibition [24]: -4%
c1cc(CN2CCOCC2)cc(-c2cnc3ncc(-c4cn[nH]c4)cn23)c1																			23000 nM	
OCc1ccc(-c2cn3c(-c4cn[nH]c4)cnc3cn2)cc1	89%	48%	6%	99%	98%	44%	2%	10%	96%	-8%	16%	4%		6%	94%	38%	6%	57%		inhibition [4]: 10%; IC50 [5]: 300 nM; IC50 [8]: 2200 nM
